From patent US6949250B2, “Selective algaecides for control of cyanochloronta” (The United States of America as represented by the …, priority 2002, dated 2005) come the findings set out here.

Assay [1] deals with Selenastrum capricornutum. Kind of assay: Rapid bioassay screening for selective algicides (LOEC, LCIC). The conditions noted are these: for MIC / minimal effective concentration: Selenastrum capricornutum; for MIC: read-out: LCIC (lowest-complete-inhibition concentration), Selenastrum capricornutum; for minimal effective concentration: read-out: LOEC (lowest-observed-effect concentration), Selenastrum capricornutum. Type of assay: cell-based.
Text: (§1) These were screened in the laboratory by the method of Schrader et al. (K. K. Schrader, M. Q. de Regt, C. S. Tucker and S. O. Duke, A rapid bioassay for selective algicides. Weed Technol. (1997), vol. 11, pp. 767-774) for algicidal activity.
(§2) The anthraquinone derivatives were screened for selective toxicity towards Oscillatoria perornata, previously isolated from a Mississippi catfish pond, using the method of Schrader et al. (1997). The green alga Selenastrum capricornutum (obtained from the United States Environmental Protection Agency, Corvallis, Oreg.) was used as the representative green algal species in the bioassay since it is a common species found in southeastern United States catfish ponds. Absorbance readings were graphed, and graphs were used to determine the LOEC (lowest-observed-effect concentration) and the LCIC (lowest-complete-inhibition concentration) for each anthraquinone analog. In addition, a 96-hour 50% inhibition concentration (IC50) was determined for DNA1-19-1 and DNA2-59-1 by using the method described by Schrader et al. (1998b). Stock solutions of DNA1-19-1 and DNA2-59-1 were prepared so that final concentrations screened for 96-hour IC50 determinations were as follows: 1) 0, 0.01, 0.033, 0.1, 0.333, 1.0, 3.3, and 10.0 μM DNA1-19-1 for both O. perornata and S. capricornutum; 2) 0, 0.003, 0.01, 0.033, 0.1, 0.333, 1.0, and 3.333 μM DNA2-59-1 for O. perornata; and 3) 0, 0.1, 0.333, 1.0, 3.333, 10.0, 33.333, and 100.0 μM DNA2-59-1 for S. capricornutum. Estimation of the IC50 was determined by plotting 96-hour absorbance readings against logarithmic dilution values of the anthraquinone analogs. The screening results of the anthraquinone derivatives and commercially available analogs of anthraquinone are presented in Tables 1 and 2, respectively. The results in Table 1 reveal that DNA1-19-1 and DNA2-59-1 are the most promising analogs since these two compounds had the lowest LOEC and LCIC values for O. perornata (10 nM and 100 nM, respectively). Based upon IC50 results in Table 3, DNA2-59-1 appears to be more toxic and selective towards O. perornata than DNA1-19-1.
as §2, with “(A rapid bioassay for selective algicides. Weed Technol. (1997), vol. 11, pp. 767-774).” for “(1997).”, “(K. K. Schradar, M. Q. de Regt, P. D. Tidwell, C. S. Tucker and S. O. Duke, Selective growth inhibition of the musty-odor producing cyanobacterium Oscillatoria cf. chalybea by natural compounds. Bull. Environ. Contam. Toxicol. (1998a), vol.60, pp. 651-658).” for “(1998b).”, “The screening results of the anthraquinone derivatives and commercially available analogs of anthraquinone are presented in Tables 1 and 2, respectively. The results in Table 1 reveal that DNA1-19-1 and DNA2-59-1 are the most promising analogs since these two compounds had the lowest LOEC and LCIC values for O. perornata (10 nM and 100 nM, respectively). Based upon IC50 results in Table 3, DNA2-59-1 appears to be more toxic and selective towards O. perornata than DNA1-19-1.” left out

Another assay concerns Oscillatoria perornata. The description is as above. The class given is cell-based. The conditions noted are these: for MIC: read-out: LCIC (lowest-complete-inhibition concentration), Oscillatoria perornata; for minimal effective concentration: read-out: LOEC (lowest-observed-effect concentration), Oscillatoria perornata.
Text: as §1, §2
as §2, with “(A rapid bioassay for selective algicides. Weed Technol. (1997), vol. 11, pp. 767-774).” for “(1997).”, “(K. K. Schradar, M. Q. de Regt, P. D. Tidwell, C. S. Tucker and S. O. Duke, Selective growth inhibition of the musty-odor producing cyanobacterium Oscillatoria cf. chalybea by natural compounds. Bull. Environ. Contam. Toxicol. (1998a), vol.60, pp. 651-658).” for “(1998b).”, “The screening results of the anthraquinone derivatives and commercially available analogs of anthraquinone are presented in Tables 1 and 2, respectively. The results in Table 1 reveal that DNA1-19-1 and DNA2-59-1 are the most promising analogs since these two compounds had the lowest LOEC and LCIC values for O. perornata (10 nM and 100 nM, respectively). Based upon IC50 results in Table 3, DNA2-59-1 appears to be more toxic and selective towards O. perornata than DNA1-19-1.” left out

Setting [2] is: Planktothrix perornata, rapid screening.

Values after ≈ are worked out from the molar mass of the structure shown. Like-named read-outs stand apart in the source and are kept apart here.

Take `CCCNCc1ccc2c(c1)C(=O)c1ccccc1C2=O.O=P(O)(O)O` [DNA3-31-1, 2-[Methylamino-N-(propyl)]-9,10-anthraquinone monophosphate]: in assay [1] (rapid screening), the “LCIC (lowest-complete-inhibition concentration), Selenastrum capricornutum” value was 10,000 nM and the “LOEC (lowest-observed-effect concentration), Selenastrum capricornutum” value (from here on “LOEC … Selenastrum capricornutum”) is 10,000 nM. Also, in the assay with Oscillatoria perornata (rapid screening), the “LCIC (lowest-complete-inhibition concentration), Oscillatoria perornata” value is given as 1,000 nM and the “LOEC (lowest-observed-effect concentration), Oscillatoria perornata” value (“LOEC … Oscillatoria perornata” below) is recorded as 1,000 nM.

In the case of `O=C1c2ccccc2C(=O)c2cc(OCCOCCOCCO)ccc21` [DNA2-99-2, 2-[2-[2-(2-Hydroxyethoxy)ethoxy]ethoxy]-9,10-anthraquinone], in assay [1] (rapid screening), the MIC was more than 100 µM and the minimal effective concentration was more than 100 µM. Moreover, in the assay on Oscillatoria perornata (setting [2]), the MIC was 10 µM (≈ 3.56 µg/mL) and the minimal effective concentration worked out at 10 µM.

On to `O=C1c2ccccc2C(=O)c2cc(COCCOCCOCCO)ccc21` [DNA3-57-1, 2-Methylene-[2-[2-(2-hydroxyethoxy)ethoxy]ethoxy]-9,10-anthraquinone], for which, in assay [1] (rapid screening), the “LCIC (lowest-complete-inhibition concentration), Selenastrum capricornutum” value was >100,000 nM and the “LOEC … Selenastrum capricornutum” value was >100,000 nM. For the same compound, in the assay with Oscillatoria perornata (rapid screening), the “LCIC (lowest-complete-inhibition concentration), Oscillatoria perornata” value is 10,000 nM and the minimal effective concentration stood at 0.1 µM.

As to `COCCOCCOCCOCCOc1ccc2c(c1)C(=O)c1ccccc1C2=O` [DNA3-55-1, 2-[2-[2-[2-(2-Methoxyethoxy)ethoxy]ethoxy]ethoxy]-9,10-anthraquinone], the figures for the MIC (in assay [1] (rapid screening); in the assay with Oscillatoria perornata (setting [2])) were more than 100 µM and 100 µM (≈ 41.4 µg/mL), respectively. The minimal effective concentration in assay [1] (rapid screening) was more than 100 µM; in the assay on Oscillatoria perornata (setting [2]), 10 µM.

As for `CN(C)CCCNc1cccc2c1C(=O)c1ccccc1C2=O.O=P(O)(O)O` [DNA2-93-1, 1-amino-N-(propyl-3′-N,N-dimethylamino)-9,10-anthraquinone phosphate], in assay [1] (rapid screening), the “LCIC (lowest-complete-inhibition concentration), Selenastrum capricornutum” value is 100,000 nM and the “LOEC … Selenastrum capricornutum” value is 100,000 nM. In the assay on Oscillatoria perornata (rapid screening), the “LCIC (lowest-complete-inhibition concentration), Oscillatoria perornata” value is listed as 1,000 nM and the “LOEC … Oscillatoria perornata” value was 1,000 nM.

Consider `O=C1c2ccccc2C(=O)c2cc(OCCOCCOCCOCCOCCO)ccc21` [DNA3-51-1, 2-[2-[2-[2-[2-(2-Hydroxyethoxy)ethoxy]ethoxy]ethoxy]ethoxy]-9,10-anthraquinone], for which the MIC in assay [1] (rapid screening) is more than 100 µM; with Oscillatoria perornata (setting [2]), 100 µM (≈ 44.4 µg/mL). Also, the minimal effective concentration is more than 100 µM in assay [1] (rapid screening) and 0.1 µM in the assay on Oscillatoria perornata (setting [2]).

Consider `CC(C)N(Cc1ccc2c(c1)C(=O)c1ccccc1C2=O)C(C)C.O=P(O)(O)O` [DNA2-49-1, 2-[Methylamino-N,N-(di-1′-methylethyl)]-9,10-anthraquinone monophosphate], for which, in assay [1] (rapid screening), the “LCIC (lowest-complete-inhibition concentration), Selenastrum capricornutum” value worked out at 1e+06 nM and the “LOEC … Selenastrum capricornutum” value is 100,000 nM. Moreover, in the assay with Oscillatoria perornata (rapid screening), the “LCIC (lowest-complete-inhibition concentration), Oscillatoria perornata” value is recorded as 1,000 nM and the “LOEC … Oscillatoria perornata” value is 1,000 nM.

Take `COCCOCCOCCOc1cccc2c1C(=O)c1ccccc1C2=O` [DNA3-11-1, 1-[2-[2-(2-Methoxyethoxy)ethoxy]ethoxy]-9,10-anthraquinone]: in assay [1] (rapid screening), the MIC is more than 100 µM and the minimal effective concentration is more than 100 µM. Moreover, in the assay with Oscillatoria perornata (setting [2]), the MIC is 10 µM (≈ 3.7 µg/mL) and the minimal effective concentration amounted to 10 µM.

As for `COCCOCCOc1ccc2c(c1)C(=O)c1ccccc1C2=O` [DNA3-5-1, 2-[2-(2-Methoxyethoxy)ethoxy]-9,10-anthraquinone], in assay [1] (rapid screening), the MIC was more than 100 µM and the minimal effective concentration is more than 100 µM. In addition, in the assay with Oscillatoria perornata (setting [2]), the MIC was 10 µM (≈ 3.26 µg/mL) and the minimal effective concentration came to 0.1 µM.

Take `O=C1c2ccccc2C(=O)c2c(OCCOCCOCCOCCOCCO)cccc21` [DNA3-49-1, 1-[2-[2-[2-[2-(2-Hydroxyethoxy)ethoxy]ethoxy]ethoxy]ethoxy]-9,10-anthraquinone]: in assay [1] (rapid screening), the MIC was more than 100 µM and the minimal effective concentration is more than 100 µM. Besides, in the assay on Oscillatoria perornata (setting [2]), the MIC was determined as 10 µM (≈ 4.44 µg/mL) and the minimal effective concentration came out at 1 µM.

As to `COCCOc1ccc2c(c1)C(=O)c1ccccc1C2=O` [DNA2-97-2, 2-(2-Methoxyethoxy)-9,10-anthraquinone], in assay [1] (rapid screening), the MIC is more than 100 µM and the minimal effective concentration is more than 100 µM. Also, in the assay on Oscillatoria perornata (setting [2]), the MIC worked out at 10 µM (≈ 2.82 µg/mL) and the minimal effective concentration was 10 µM.

Take `COCCOc1cccc2c1C(=O)c1ccccc1C2=O` [DNA3-13-1, 1-(2-Methoxyethoxy)-9,10-anthraquinone]: in assay [1] (rapid screening), the MIC was more than 100 µM and the minimal effective concentration was found to be 0.01 µM. Further, in the assay on Oscillatoria perornata (setting [2]), the MIC worked out at 10 µM (≈ 2.82 µg/mL) and the minimal effective concentration is 10 µM.

Turning to `COCCOCCOCCOc1ccc2c(c1)C(=O)c1ccccc1C2=O` [DNA3-9-1, 2-[2-[2-(2-methoxyethoxy)ethoxy]ethoxy]-9,10-anthraquinone], the values for the MIC (in assay [1] (rapid screening); in the assay on Oscillatoria perornata (setting [2])) were more than 100 µM and 10 µM (≈ 3.7 µg/mL), respectively. Also, the minimal effective concentration in assay [1] (rapid screening) is more than 100 µM; with Oscillatoria perornata (setting [2]), 10 µM.

Turning to `Nc1ccc2c(c1)C(=O)c1ccccc1C2=O` [2-aminoanthraquinone, reference compound], the MIC (in assay [1] (rapid screening); in the assay on Oscillatoria perornata (setting [2])) was more than 100 µM in each case.

Consider `COCCOCCOCCOCCOc1cccc2c1C(=O)c1ccccc1C2=O` [DNA3-53-1, 1-[2-[2-[2-(2-Methoxyethoxy)ethoxy]ethoxy]ethoxy]-9,10-anthraquinone], for which, in assay [1] (rapid screening), the MIC was more than 100 µM and the minimal effective concentration stood at 100 µM. In addition, in the assay on Oscillatoria perornata (setting [2]), the MIC turned out to be 100 µM (≈ 41.4 µg/mL) and the minimal effective concentration was determined as 10 µM.

In the case of `O=C1c2ccccc2C(=O)c2cc(CO)ccc21` [2-hydroxymethyl-anthraquinone, reference compound], the values for the MIC (in assay [1]; in the assay on Oscillatoria perornata (Planktothrix perornata)) were 100 µM (≈ 23.8 µg/mL) and 10 µM (≈ 2.38 µg/mL), respectively.

`CCN(CC)CCCNc1cccc2c1C(=O)c1ccccc1C2=O.O=P(O)(O)O` [DNA2-91-1, 1-amino-N-(propyl-3′-N,N-diethylamino)-9,10-anthraquinone phosphate]: in assay [1] (rapid screening), the “LCIC (lowest-complete-inhibition concentration), Selenastrum capricornutum” value is on record as 100,000 nM and the “LOEC … Selenastrum capricornutum” value is given as 100,000 nM. In the assay on Oscillatoria perornata (rapid screening), the “LCIC (lowest-complete-inhibition concentration), Oscillatoria perornata” value is reported as 10,000 nM and the “LOEC … Oscillatoria perornata” value is given as 10,000 nM.

Take `O=C1c2ccccc2C(=O)c2cc(COCCOCCOCCOCCO)ccc21` [DNA3-59-1, 2-Methylene-[2-[2-[2-(2-hydroxyethoxy)ethoxy]ethoxy]ethoxy]-9,10-anthraquinone]: in assay [1] (rapid screening), the “LCIC (lowest-complete-inhibition concentration), Selenastrum capricornutum” value is recorded as >100,000 nM and the “LOEC … Selenastrum capricornutum” value is recorded as >100,000 nM. Besides, in the assay with Oscillatoria perornata (rapid screening), the “LCIC (lowest-complete-inhibition concentration), Oscillatoria perornata” value was 100,000 nM and the minimal effective concentration is 0.1 µM.
